Assays:
[1] = test system: mitochondrial membrane potential (Δψm) in A2780 cells; test: Mitochondrial membrane potential (TMRM, flow cytometry); assay type: cell-based, human; conditions: A2780, 48 h exposure at 72 h IC50 dose, compared to controls
Procedure: The mitochondrial membrane potential (Δψm) was measured using tetramethylrhodamine methyl ester perchlorate (TMRM), a lipophilic potentiometric fluorescent dye that distributes between the mitochondria and cytosol in proportion to Δψm by virtue of its positive charge. The amount of accumulated dye in the mitochondria, and consequently the signal intensity, is a direct function of mitochondrial potential. […] Cells were then trypsinized, washed with PBS, and incubated with 100 nM TMRM for 20 min in the dark at 37 °C. After labelling, cells were washed again, suspended in PBS, and analyzed using a FACSCantoII flow cytometer (BD Biosciences, New Jersey, USA).

[2] = test system: thioredoxin reductase (TrxR); conditions: for effect on TrxR enzyme activity: A2780, 12 h treatment at 72 h IC50 dose; for inhibition of TrxR enzyme activity: A2780, 24 h treatment at 72 h IC50 dose, vs controls
Procedure: The total thioredoxin reductase (TrxR) activity was measured using a commercial colorimetric assay kit (#CS0170, Sigma Aldrich, St. Louis, MO, USA) based on the reduction of 5,5′-dithiobis (2-nitrobenzoic) acid (DTNB) with NADPH to 5-thio-2 nitrobenzoic acid (TNB) at 412 nm. This kit also contains an inhibitor solution of mammalian thioredoxin reductase. Since several enzymes present in the biological sample can reduce DTNB, the specific inhibitor is used to determine the reduction of DTNB due only to TrxR activity. […] Cells were lysed with RIPA buffer (50 mM Tris-HCl pH 7.0, 1% (v/v) NP-40, 150 mM NaCl, 2 mM ethylene glycol bis(2-aminoethyl ether)tetra-acetic acid, 100 mM NaF) supplemented with a cocktail of protease inhibitors. The protein concentrations in the cell lysates were determined by Bradford protein assay kit (Bio-Rad Laboratories, Hercules, USA) according to the manufacturer’s instructions and then 30 µg samples of proteins were used for the assay. Results were normalized to the cellular protein content.

[3] = test system: PNT1 (human normal prostate epithelium) cells; test: MTT antiproliferative assay on PNT1 cells; assay type: cell-based; conditions: for IC50: 72 h of treatment, MTT assay, mean ± SD of three experiments, read-out: Half-maximal inhibitory concentration (IC50), PNT1; for IC50 for PNT1 higher than for A2780 (fold): ratio of 72 h IC50 PNT1 / A2780
Procedure: The inhibition of cell proliferation by Au2phen, Auoxo6, and AuL12 on A2780 cell line was evaluated through MTT (3-(4,5-dimethylthiazol-2-yl)-2,5-diphenyltetrazolium bromide) test. Viable cells can convert MTT into formazan, which is coloured and detectable at 595 nm. Exponentially growing cells were seeded in 96 well-microplates at a density of 8 × 10^3 for 24 h and then gold compounds were added in fresh RPMI medium at concentrations ranging from 0.003 to 100 µM and incubated for 72 h. On the day of the test, cells were treated with 0.5 mg/mL MTT for 1 h at 37 °C. Following precipitation, blue formazan was dissolved in DMSO, and the optical density was read in a microplate reader interfaced with Microplate Manager/PV version 4.0 software (BioRad Laboratories, Hercules, USA). From the absorbance measurements, the half-maximal inhibitory concentration (IC50) value of each compound on A2780 cells was calculated using GraphPad Prism software version 6.0 (Graphpad Holdings, LLC, USA). The same protocol was applied on non-tumor cell lines, i.e., HEK and PNT1 cells.

[4] = test system: mitochondrial respiration of A2780 cells; test: Oxygen consumption rate (Clark-type O2 electrode); assay type: cell-based, human; conditions: A2780, 24 h at 72 h IC50 dose, compared to controls
Procedure: The analysis of the oxygen consumption rate (OCR) was performed using a Clark-type O2 electrode inserted in a thermostated airtight chamber (Oxygraph Plus System, Hansatech Instruments, King’s Lynn, Norfolk, UK). Briefly, control and treated cells (12 and 24 h) were trypsinized, washed with PBS, and suspended in culture medium to measure the steady state OCR for 10 min. The OCR values, expressed as nmol of consumed O2/mL/min, were normalized to the cellular protein content. To evaluate the response of complex I, complex II/III, and ATP-synthase-driven OCRs in the presence or absence of gold-treatment, we used the protocol described by Baracca et al.. Cells were trypsinized, washed, and resuspended in buffer containing sucrose, TRIS-HCl, MgSO4, EDTA, and KH2PO4. Cell suspension was treated with digitonin to allow cell membrane permeabilization. To stimulate complex I, 250 mM glutamate/malate was added, whereas to stimulate complex II, 250 mM succinate was added (state 2 respiration). Then, to induce ATP-synthase-driven mitochondrial respiration, 10 mM ADP was added (state 3 respiration). To estimate the mitochondrial respiratory capacity, defined as the respiratory control ratio (RCR), state 3/state 2 ratios were calculated for control and treated cells.

caspase-8 = test: FAM-FLICA caspase-8 activation, flow cytometry; assay type: cell-based, human; conditions: A2780, 72 h at 72 h IC50 dose, compared to controls
Procedure: In addition, caspase-3, caspase-8, and caspase-9 activation was assessed in treated and untreated cells. Likewise, cells were trypsinized, washed with PBS, and suspended in FAM-FLICATM caspase solution (FAM-DEVD-FMK caspase FLICA kit, ImmunoChemistry Technologies, MN 55431 USA) for 30 min at 37 °C. Cells were then washed twice with PBS and analyzed using a FACSCantoII flow cytometer (BD Biosciences, New Jersey, USA).

AKT = test: Western blot of phospho(Ser473)-AKT and total AKT; assay type: cell-based, human; conditions: A2780, 24 h at 72 h IC50 dose, vs controls
Procedure: After drug treatments, cells were lysed in RIPA buffer supplemented with a cocktail of protease and phosphatase inhibitors. […] To favor the electrophoretic separation, 25% sample loading buffer (SLB) was added to the cell lysates. Here, 20 µg samples of proteins from controls and treated cells were loaded on 4–20% pre-cast SDS-PAGE gels and blotted onto PVDF membranes. Primary antibodies Bcl-2 (1:1000 dilution,#sc-7382, Santa Cruz, Dallas, Texas USA), Bax (1:1000 dilution, #sc-493, Santa Cruz), OXPHOS cocktail (1:1000 dilution, #ab110413, AbCam, Cambridge, UK), citrate synthase (1:1000 dilution, #sc-515640, Santa Cruz), ASK1 (1:1000 dilution, #sc-390275, Santa Cruz), phospho(Thr838)-ASK1 (1:1000 dilution, #CPA6042, Cohesion Biosciences, London, UK), AKT (1:1000 dilution, #sc-5298, Santa Cruz), and phospho(Ser473)-AKT (1:1000 dilution, #GTX128414, GeneTex, Irvine, CA, USA) were added to 2% non-fat dry milk in PBS-tween solution, while PVDF membranes were incubated overnight at 4 °C. Then, membranes were treated with horseradish peroxidase (HRP)-conjugated secondary antibodies (1:5000 dilution, Santa Cruz) and immunoreactive bands were detected with an ECL kit detection system on an Amersham Imager 600 (GE Healthcare, Chicago, IL, USA). For the quantification, a densitometric analysis of the bands was performed using ImageJ2 software version 2.0.0-rc-64 [23]. The intensities of the immunostained bands were normalized on the Coomassie brilliant blue R-250-stained total protein from the same PVDF membrane.

Compound	cells bearing lower Δψm (low TMRM fluorescence) [1]	effect on TrxR enzyme activity [2]	inhibition of TrxR enzyme activity [2]	IC50 [3] [µM]	IC50 for PNT1 higher than for A2780 (fold) [3]	reduction of oxygen consumption rate (OCR) [4] [%]	cells showing caspase-8 activation (caspase-8)	reduction of phospho-AKT levels (phosphorylated-AKT/total AKT ratio) (AKT)
Cc1ccc2ccc3ccc(C)[n+]4c3c2[n+]1[Au-]41[O][Au-]2([O]1)[n+]1c(C)ccc3ccc4ccc(C)[n+]2c4c31.F[P-](F)(F)(F)(F)F.F[P-](F)(F)(F)(F)F [Au2phen, ((2,9-dimethyl-1,10-phenanthroline)2Au2(µ-O)2)(PF6)2]	about 26%	clear tendency to inhibit the TrxR activity, even if the changes were not statistically significant	~ 26%	11.8 ± 0.25	about 14 fold	26.8	around 50%	about 12%
CCOC(=O)CN(C)C1=[S+][Au-]([Br])([Br])[S]1 [AuL12, dibromo(ethylsarcosinedithiocarbamate)gold(III), reference compound]	~36%	clear tendency to inhibit the TrxR activity, even if the changes were not statistically significant	about 50%	12.3 ± 0.17	3 fold	18	~ 30%	~17%
Cc1cccc2[n+]1[Au-]1([O][Au-]3([O]1)[n+]1c(C)cccc1-c1cccc(C)[n+]13)[n+]1c(C)cccc1-2.F[P-](F)(F)(F)(F)F.F[P-](F)(F)(F)(F)F [Auoxo6, ((6,6′-dimethyl-2,2′-bipyridine)2Au2(µ-O)2)(PF6)2]	17%	clear tendency to inhibit the TrxR activity, even if the changes were not statistically significant	about 50%	18.4 ± 0.3	~16 fold	24.7	~70%	~19%
